Reference: patent US20150374646A1, “TREATMENT OF CANCER AND OTHER CONDITIONS USING A TRANSCRIPTION FACTOR MODULATOR” (C & C BIOPHARMA, LLC, priority 2013, published 2015)

Tests used:
Nalm-6 = assay: cells; settings: Homo sapiens, NALM-6, 72 h, read-out: 72 hr growth inhibition (%)
Method: (§2) Various human leukemia cells were grown to the logarithmic growth phase and seeded into 24-well plates. […] Treated cells were further incubated for 72 hours and then were examined for cell proliferation. Cell proliferation was determined using the CellTiter-Glo Luminescence Cell Viability assay (Promega Corporation, Madison, Wis.) according to the manufacturer's protocol. The calculated inhibition rate was determined with the following formula: Inhibition rate (%)=(1−Luminescence of experimental group/Luminescence of control group)×100. IC50 is the calculated concentration of a compound needed to inhibit half of the maximum cell growth (equivalent to cell growth in control group) based on the corresponding dose-response curve under the described experimental conditions.
Growth inhibition experiments were performed as previously described.

SEM cells [1] = assay: Leukemia cell growth inhibition, CellTiter-Glo (Example 1); format: cell-based; settings: Homo sapiens, ALL (B-cell), 72 hours
Method: as §2

CAK1 = assay: Cancer cell line growth inhibition, CellTiter-Glo (Example 3); format: cell-based; settings: Homo sapiens, Renal, 72 hours
Method: (§1) YT30 was tested for growth inhibition against 67 human cancer cell lines derived from diverse tissues including the National Cancer Institute human cancer cell lines (NCI-60). […] Cells in different wells were treated with various concentrations of YT30, YT86, YT88, or YT128. […] Cell viabilities were determined by the CellTiter-Glo Luminescence Cell Viability assay kit (Promega Corporation, Madison, Wis.) according to manufacturer's protocol.

NCI-H23 = assay: as above; format: cell-based; settings: Homo sapiens, NSCLC, 72 hours
Method: as §1

SEM cells [2] = assay: as above; format: cell-based; settings: Homo sapiens, Leukemia, 72 hours
Method: as §1

EKVX = assay: as above; format: cell-based; settings: Homo sapiens, NSCLC, 72 hours
Method: as §1

SW-620 = assay: as above; format: cell-based; settings: Homo sapiens, Colon, 72 hours
Method: as §1

CCRF-CEM = assay: as above; format: cell-based; settings: Homo sapiens, Leukemia, 72 hours, read-out: IC50
Method: as §1

RCH-HCV = assay: as above; format: cell-based; settings: Homo sapiens, Leukemia, 72 hours
Method: as §1

UACC-257 = assay: as above; format: cell-based; settings: Homo sapiens, Melanoma, 72 hours
Method: as §1

A549 = assay: as above; format: cell-based; settings: Homo sapiens, NSCLC, 72 hours, read-out: IC50
Method: as §1

SK-MEL-5 = assay: as above; format: cell-based; settings: Homo sapiens, Melanoma, 72 hours
Method: as §1

SK-OV-3 = assay: as above; format: cell-based; settings: Homo sapiens, Ovary, 72 hours
Method: as §1

OVCAR-3 = assay: as above; format: cell-based; settings: Homo sapiens, Ovary, 72 hours, read-out: IC50
Method: as §1

RPMI-8226 [3] = assay: as above; format: cell-based; settings: Homo sapiens, Leukemia, 72 hours
Method: as §1

K562 = assay: as above; format: cell-based; settings: Homo sapiens, Leukemia, 72 hours, read-out: IC50
Method: as §1

OVCAR-8 = assay: as above; format: cell-based; settings: Homo sapiens, Ovary, 72 hours
Method: as §1

U251 = assay: as above; format: cell-based; settings: Homo sapiens, U-251, CNS, 72 hours, read-out: IC50
Method: as §1

HCT116 = assay: as above; format: cell-based; settings: Homo sapiens, HCT-116, Colon, 72 hours
Method: as §1

SN12C = assay: as above; format: cell-based; settings: Homo sapiens, Renal, 72 hours, read-out: IC50
Method: as §1

NCI-H226 = assay: as above; format: cell-based; settings: Homo sapiens, NSCLC, 72 hours
Method: as §1

HeLa = assay: as above; format: cell-based; settings: Homo sapiens, Cervical, 72 hours, read-out: IC50
Method: as §1

HOP-92 = assay: as above; format: cell-based; settings: Homo sapiens, NSCLC, 72 hours
Method: as §1

SF-539 = assay: as above; format: cell-based; settings: Homo sapiens, CNS, 72 hours, read-out: IC50
Method: as §1

LOX IMVI = assay: as above; format: cell-based; settings: Homo sapiens, Melanoma, 72 hours
Method: as §1

HOP-62 = assay: as above; format: cell-based; settings: Homo sapiens, NSCLC, 72 hours
Method: as §1

HepG2 = assay: as above; format: cell-based; settings: Homo sapiens, Liver, 72 hours
Method: as §1

SR = assay: as above; format: cell-based; settings: Homo sapiens, Leukemia, 72 hours, read-out: IC50
Method: as §1

MOLT-4 = assay: Leukemia cell growth inhibition, CellTiter-Glo (Example 1); format: cell-based; settings: Homo sapiens; MOLT-4, ALL (T-cell); 72 hours
Method: as §2

BaF3 BCR-ABL T315I = assay: as above; format: cell-based; settings: Mouse cell line with BCR-ABL with T315I point mutation (Gleevec resistant), 72 hours
Method: as §2

RPMI-8226 [4] = assay: as above; format: cell-based; settings: Homo sapiens; RPMI-8226, Multiple myeloma; 72 hours
Method: as §2

BaF3 BCR-ABL = assay: as above; format: cell-based; settings: Mouse cell line with BCR-ABL, 72 hours
Method: as §2

Which inhibition at 0.5 µM (Nalm-6) does the source give for Nc1ccccc1NC(=O)CCCCCC(=O)Nc1cccc(Br)c1 [YT30] here?
Its inhibition at 0.5 µM is 2.5%.

What about the inhibition at 1 µM (Nalm-6) of the same compound?
The inhibition at 1 µM was 8.4%.

What about the IC50 (SEM cells [1]) of the same compound?
Its IC50 is 1.15 µM.

And the IC50 (CAK1)?
The IC50 was 11.7 µM.

What about the IC50 (NCI-H23) of the same compound?
Its IC50 is 11 µM.

What about the IC50 (SEM cells [2]) of the same compound?
Its IC50 is 1.15 µM.

What about the IC50 (EKVX) of the same compound?
Its IC50 is 4.57 µM.

And the IC50 (SW-620)?
The IC50 was 11 µM.

What about the IC50 (CCRF-CEM) of the same compound?
The IC50 was 1.53 µM.

What about the IC50 (RCH-HCV) of the same compound?
Its IC50 is 0.79 µM.

And the IC50 (UACC-257)?
The IC50 was 6.1 µM.

What about the IC50 (A549) of the same compound?
The IC50 was 3.41 µM.

What about the IC50 (SK-MEL-5) of the same compound?
The IC50 was 3.87 µM.

And the IC50 (SK-OV-3)?
The IC50 was 8.09 µM.

And the IC50 (OVCAR-3)?
The IC50 was 9.17 µM.

What about the IC50 (RPMI-8226 [3]) of the same compound?
The IC50 was 2 µM.

And the IC50 (K562)?
The IC50 was 1.82 µM.

What about the IC50 (OVCAR-8) of the same compound?
Its IC50 is 6.74 µM.

What about the IC50 (U251) of the same compound?
The IC50 was 7.36 µM.

And the IC50 (HCT116)?
The IC50 was 13 µM.

What about the IC50 (SN12C) of the same compound?
Its IC50 is 9.52 µM.

And the IC50 (NCI-H226)?
Its IC50 is 12.7 µM.

What about the IC50 (HeLa) of the same compound?
Its IC50 is 4.3 µM.

And the IC50 (HOP-92)?
The IC50 was 11 µM.

What about the IC50 (SF-539) of the same compound?
Its IC50 is 10.8 µM.

And the IC50 (LOX IMVI)?
The IC50 was 3.03 µM.

What about the IC50 (HOP-62) of the same compound?
The IC50 was 29.6 µM.

What about the IC50 (HepG2) of the same compound?
Its IC50 is 12.7 µM.

What about the IC50 (SR) of the same compound?
Its IC50 is 6.89 µM.

And the IC50 (MOLT-4)?
The IC50 was 1.13 µM.

And the IC50 (BaF3 BCR-ABL T315I)?
The IC50 was 1.11 µM.

And the IC50 (RPMI-8226 [4])?
Its IC50 is 2 µM.

What about the IC50 (BaF3 BCR-ABL) of the same compound?
Its IC50 is 3.4 µM.
